Structures are written as SMILES.

In data set [1] the test system is CCRF-CEM. Briefly: Cytotoxic concentration against uninfected CEM cells. It is filed as functional. The note with it: Homo sapiens.
Data set [2] deals with T1, Human immunodeficiency virus type 1 integrase (Human immunodeficiency virus 1, UniProt Q7ZJM1).
Data set [3] concerns CCRF-CEM. Briefly: Anti HIV-1 activity expressed as the concentration required to protect of HIV-1 infected CEM cells. It is filed as functional, cell-based. The note with it: Homo sapiens.
Data set [4] deals with CCRF-CEM. Briefly: Maximum protection of CEM cells by the compound against HIV-1; No protection. The note with it: Homo sapiens. It is filed as functional, cell-based.
Data set [5] addresses T1, Human immunodeficiency virus type 1 integrase. The source holds these as a separate data set.
Description: Inhibition of HIV-1 integrase catalytic activity
Data set [6] can be described thus: Therapeutic index expressed as the ratio of CC50 and EC50; No therapeutic benifit reached. The data set is classed as cell-based. The note with it: human, ccrf-cem.
Data set [7] has as its system CCRF-CEM. Briefly: Maximum protection of CEM cells by the compound against HIV-1 at a dose of 63 uM. It is filed as functional, Homo sapiens.
The nature of data set [8]: Therapeutic index expressed as the ratio of CC50 and EC50. It is filed as cell-based. Conditions: human, CCRF-CEM cells; read-out: Therapeutic index.
The target in data set [9] is T1, Human immunodeficiency virus type 1 integrase. Briefly: Evaluated for inhibition of HIV-1 integrase catalytic activity in terms of inhibition of 3'-processing. The data set is classed as functional.
Data set [10] deals with CCRF-CEM. Briefly: Maximum protection of CEM cells by the compound against HIV-1 at a dose of 2 uM. It is filed as functional, Homo sapiens.
The subject of data set [11] is CCRF-CEM. Briefly: Maximum protection of CEM cells by the compound against HIV-1 at a dose of 20 uM. The data set is classed as functional, Homo sapiens.
Data set [12] relates to CCRF-CEM. Briefly: Maximum protection of CEM cells by the compound against HIV-1 at a dose of 2 uM; No protection. It is filed as functional, cell-based. Conditions: Homo sapiens.
Data set [13] deals with CCRF-CEM. Briefly: Maximum protection of CEM cells by the compound against HIV-1 at a dose of 0.2 uM. It is filed as functional, Homo sapiens.

T1 sequence (Q7ZJM1 whole entry): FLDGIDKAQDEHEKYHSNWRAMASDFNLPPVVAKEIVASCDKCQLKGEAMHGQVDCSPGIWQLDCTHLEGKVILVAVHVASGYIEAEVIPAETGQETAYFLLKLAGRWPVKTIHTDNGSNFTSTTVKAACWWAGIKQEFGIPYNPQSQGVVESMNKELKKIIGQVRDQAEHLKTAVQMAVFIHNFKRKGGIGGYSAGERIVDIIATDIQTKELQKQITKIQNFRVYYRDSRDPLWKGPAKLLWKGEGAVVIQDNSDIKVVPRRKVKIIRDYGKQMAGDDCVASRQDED

In general, CC50 refers to the concentration at which the toxic effect on the cells reaches its halfway point. Read a low CC50 as harm at low concentration. The IC50 is the midpoint of a concentration-inhibition curve. Read a high IC50 as weaker potency. The EC50 is the concentration that produces a half-maximal response. `O=C(/C=C(\O)c1cccc(Cc2ccccc2F)c1)C(=O)NCCCCCNC(=O)C(=O)/C=C(\O)c1cccc(Cc2ccccc2F)c1` returned a CC50 with CCRF-CEM [1] of 12 µM. Moreover, the IC50 in [2] turned out to be 4.8 µM; in [5], 700 nM. This compound displayed an EC50 with CCRF-CEM [3] greater than 12 µM. Besides, the Max protection entry in the data set with CCRF-CEM [4] is “No protection”. For the same compound, the Therapeutic index entry in data set [6] is reported as “No therapeutic benefit”.

In turn, `O=C(/C=C(\O)c1cccc(Cc2ccccc2F)c1)C(=O)NCCCNC(=O)C(=O)/C=C(\O)c1cccc(Cc2ccccc2F)c1` yielded a CC50 in the data set on CCRF-CEM [1] of 9 µM. Also, the IC50 in [2] came to 5.3 µM; in [5], 200 nM. This compound displayed an EC50 with CCRF-CEM [3] greater than 9 µM. Moreover, in the data set with CCRF-CEM [4], the Max protection result was “No protection”. In addition, in data set [6], the Therapeutic index entry was “No therapeutic benefit”.

In turn, `O=C(O)C(=O)/C=C(\O)c1cccc(OCc2ccccc2COc2cccc(/C(O)=C/C(=O)C(=O)O)c2)c1` yielded a CC50 in the data set on CCRF-CEM [1] greater than 200 µM. The compound also yielded an EC50 with CCRF-CEM [3] of 39 µM. This compound displayed a Max protection in the data set on CCRF-CEM [7] of 97%.

For `O=C(/C=C(\O)c1cccc(Cc2ccccc2F)c1)C(=O)N1CCN(C(=O)C(=O)/C=C(\O)c2cccc(Cc3ccccc3F)c2)CC1`, the CC50 in the data set with CCRF-CEM [1] worked out at 11 µM. In the data set on CCRF-CEM [3], this compound yielded an EC50 of 0.8 µM. Besides, the selectivity ratio in data set [8] turned out to be 14. Besides, the IC50 amounted to 300 nM in data set [5] and 2500 nM in data set [9]. In the data set on CCRF-CEM [10], the Max protection was determined as 100%.

`O=C(O)C(=O)/C=C(\O)c1cccc(C(c2cccc(/C(O)=C/C(=O)C(=O)O)c2)c2ccccc2F)c1` (configuration not stated) returned a CC50 in the data set with CCRF-CEM [1] of 81 µM. Moreover, the midpoint of the response with CCRF-CEM [3], the EC50, lay at 17 µM. Moreover, the Max protection with CCRF-CEM [11] is recorded as 88%.

In the case of `O=C(/C=C(\O)c1cccc(Cc2ccccc2F)c1)C(=O)NCCCCCCNC(=O)C(=O)/C=C(\O)c1cccc(Cc2ccccc2F)c1`, half-maximal cytotoxicity in the data set on CCRF-CEM [1] (CC50) was put at 124 µM. Moreover, the figures for the IC50 in data set [2] and in data set [5] were 32 µM and 2700 nM, respectively. Also, the EC50 in the data set with CCRF-CEM [3] amounted to 16 µM. Also, in data set [8], the selectivity ratio turned out to be 8. In addition, the Max protection in the data set with CCRF-CEM [11] is 86%.

On to `O=C(/C=C(\O)c1cccc(Cc2ccccc2F)c1)C(=O)NCCNC(=O)C(=O)/C=C(\O)c1cccc(Cc2ccccc2F)c1`, for which half-maximal cytotoxicity with CCRF-CEM [1] (CC50) was put at 5 µM. Also, the IC50 in data set [2] came to 5.8 µM; in [5], 200 nM. Besides, the EC50 with CCRF-CEM [3] was greater than 5 µM. Moreover, the Max protection result in the data set with CCRF-CEM [12] was “No protection”. For the same compound, the Therapeutic index result in data set [6] was “No therapeutic benefit”.

`O=C(O)C(=O)/C=C(\O)c1cccc(Cc2ccccc2F)c1`: the CC50 in the data set on CCRF-CEM [1] was 62 µM. Besides, the 50% inhibitory concentration (IC50) in data set [2] is 2.5 µM; in data set [5], 400 nM. For the same compound, the Max protection in the data set on CCRF-CEM [13] is 98%. The EC50 with CCRF-CEM [3] amounted to 0.02 µM. Also, the selectivity ratio in data set [8] worked out at 3110.

In the data set with CCRF-CEM [1], `O=C(O)C(=O)/C=C(\O)c1cccc(OCc2cccc(COc3cccc(/C(O)=C/C(=O)C(=O)O)c3)c2)c1` displayed a CC50 greater than 200 µM. This compound also showed an IC50 in [2] of 7.3 µM. The same compound registered an EC50 in the data set on CCRF-CEM [3] greater than 200 µM. The Max protection entry in the data set on CCRF-CEM [4] is “No protection”.

`O=C(O)C(=O)/C=C(\O)c1cccc(OCc2ccc(COc3cccc(/C(O)=C/C(=O)C(=O)O)c3)cc2)c1` showed a CC50 with CCRF-CEM [1] greater than 200 µM. The figures for the IC50 in data set [2] and in data set [5] were 1.7 µM and 1900 nM, respectively. The compound also displayed an EC50 in the data set on CCRF-CEM [3] greater than 200 µM. Besides, the Max protection entry in the data set on CCRF-CEM [4] was “No protection”. Besides, the Therapeutic index entry in [6] is given as “No therapeutic benefit”.
